The values that follow come from PubChem BioAssay (NCI).

Several values for one entry are separate records, joined by “and”; a condition that tells them apart may be missing. Identical values can stand only once.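 Tested at 5 concentrations; 48 h exposure; 96-well plates; endpoints linearly interpolated, else capped at highest concentration. The concentration for 50% growth inhibition is given as GI50. The concentration for full growth arrest is given as TGI.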

Among the test systems are A498 renal; CAKI-1 renal; EKVX NSCLC; NCI-H460 lung; OVCAR-8 ovarian; SK-MEL-2 melanoma; SK-OV-3 ovarian; SNB-75 CNS; TK-10 renal; U251 CNS.
What all share (experiment): NCI tumour cell line growth inhibition, 48 h

Regarding `CNc1ccc2nc3ccc(=[N+](C)C)cc-3sc2c1`, the GI50 was 2.98 µM and 6.49 µM in the experiment on A498 renal; 1.28 µM and 1.4 µM in the experiment with CAKI-1 renal; 4.63 µM and 0.518 µM in the experiment with EKVX NSCLC; 2.32 µM and 0.879 µM in the experiment on NCI-H460 lung; 0.298 µM and 0.278 µM with OVCAR-8 ovarian; 1.12 µM and 1.07 µM with SK-MEL-2 melanoma. Further, the GI50 is 4.29 µM and 3.81 µM in the experiment with SK-OV-3 ovarian; 1.89 µM and 1.34 µM with SNB-75 CNS; 2.3 µM and 3.36 µM with TK-10 renal; 0.412 µM and 0.267 µM with U251 CNS. The TGI was 25.4 µM and 28.2 µM in the experiment on A498 renal; 9.17 µM and 6.02 µM in the experiment on CAKI-1 renal; 23.4 µM and 14.5 µM in the experiment on EKVX NSCLC; 18.5 µM and 11.5 µM in the experiment with NCI-H460 lung; 1.79 µM and 1.55 µM with OVCAR-8 ovarian; 3.81 µM and 5.25 µM with SK-MEL-2 melanoma. Also, the TGI in the experiment with SK-OV-3 ovarian was 18.7 µM and 19.1 µM; in the experiment with SNB-75 CNS, 7.36 µM and 7.14 µM; in the experiment on TK-10 renal it was 7.69 µM and 14.6 µM; in the experiment on U251 CNS, 5.6 µM and 1.68 µM.
Turning to `Nn1c(-c2ccccc2)nc2ccc(Br)cc2c1=O`, the TGI in the experiment on A498 renal, in the experiment on CAKI-1 renal, in the experiment on EKVX NSCLC, with NCI-H460 lung, in the experiment on OVCAR-8 ovarian and in the experiment with SK-MEL-2 melanoma was more than 100 µM each time. Moreover, the TGI in the experiment with SK-OV-3 ovarian, in the experiment with SNB-75 CNS, in the experiment on TK-10 renal and in the experiment on U251 CNS was more than 100 µM throughout.
For `COc1ccc(C(=O)/C(Br)=C/C(=O)O)cc1`, the GI50 in the experiment on A498 renal is 58.3 µM; with EKVX NSCLC, 28 µM; in the experiment on NCI-H460 lung, 14.4 µM; in the experiment with TK-10 renal, 113 µM. Also, the TGI in the experiment on A498 renal is 192 µM and 77.3 µM; in the experiment on CAKI-1 renal it was 148 µM and 154 µM; with EKVX NSCLC, 181 µM and 115 µM; in the experiment with NCI-H460 lung, 300 µM and 72 µM; with OVCAR-8 ovarian, 326 µM; in the experiment on SK-MEL-2 melanoma, 29.3 µM and 32 µM. Further, the TGI was 358 µM and 299 µM with SK-OV-3 ovarian; 145 µM and 186 µM with SNB-75 CNS; 167 µM and 285 µM with TK-10 renal; 46.5 µM and 52.1 µM with U251 CNS.
With `CS(=O)(=O)CCNCc1nc(-c2ccc3ncnc(Nc4ccc(F)c(Cl)c4)c3c2)cs1`, the GI50 in the experiment on A498 renal is 3.32 µM; with CAKI-1 renal, 1.47 µM; in the experiment with EKVX NSCLC, 0.0927 µM; in the experiment with NCI-H460 lung it was 18.7 µM; in the experiment with OVCAR-8 ovarian it was 14.4 µM; in the experiment on SK-MEL-2 melanoma it was more than 17.6 µM. Moreover, the GI50 in the experiment on SK-OV-3 ovarian was 1.96 µM; in the experiment on SNB-75 CNS, more than 18.3 µM; in the experiment with TK-10 renal, 0.232 µM; in the experiment on U251 CNS it was more than 25 µM. In addition, the TGI is 20.5 µM with A498 renal; more than 25 µM in the experiment with CAKI-1 renal; more than 25 µM in the experiment on EKVX NSCLC; more than 25 µM with NCI-H460 lung; more than 25 µM in the experiment with OVCAR-8 ovarian; more than 25 µM with SK-MEL-2 melanoma. Moreover, the TGI in the experiment with SK-OV-3 ovarian is 11 µM; in the experiment on SNB-75 CNS it was more than 25 µM; in the experiment on TK-10 renal it was more than 25 µM; in the experiment on U251 CNS it was more than 25 µM.
`Cc1ncc(CN=Cc2ccc(Cl)cc2)c(N)n1`: the TGI with A498 renal, with CAKI-1 renal, with EKVX NSCLC, in the experiment with NCI-H460 lung, in the experiment with OVCAR-8 ovarian and in the experiment on SK-MEL-2 melanoma was more than 100 µM in each case. In addition, the TGI in the experiment on SK-OV-3 ovarian, with SNB-75 CNS, with TK-10 renal and with U251 CNS was more than 100 µM each time.
Take `O=C(NNc1nc(Cl)nc(N2CCN(C(c3ccccc3)c3ccccc3)CC2)n1)c1ccccc1`: the GI50 in the experiment with A498 renal is 3.55 µM; with CAKI-1 renal it was 1.68 µM; with EKVX NSCLC, 1.99 µM; in the experiment with NCI-H460 lung, 1.93 µM; in the experiment on OVCAR-8 ovarian, 1.99 µM; in the experiment on SK-MEL-2 melanoma, 1.83 µM. For the same molecule, the GI50 is 2.47 µM in the experiment with SK-OV-3 ovarian, 1.43 µM in the experiment with SNB-75 CNS, more than 100 µM with TK-10 renal and 1.69 µM in the experiment on U251 CNS. The TGI in the experiment with A498 renal was determined as 18.8 µM; with CAKI-1 renal, 3.1 µM; in the experiment on EKVX NSCLC it was 4.29 µM; in the experiment on NCI-H460 lung, 3.77 µM; in the experiment with OVCAR-8 ovarian, 4.67 µM; with SK-MEL-2 melanoma it was 3.55 µM. Besides, the TGI in the experiment with SK-OV-3 ovarian was 6.94 µM; in the experiment on SNB-75 CNS it was 2.75 µM; in the experiment on TK-10 renal it was more than 100 µM; in the experiment with U251 CNS, 3.13 µM.
With `O=P(O)(CCP(=O)(O)c1ccccc1)c1ccccc1`, the TGI in the experiment with A498 renal, with CAKI-1 renal, in the experiment with EKVX NSCLC, in the experiment on NCI-H460 lung, with OVCAR-8 ovarian and with SK-MEL-2 melanoma was more than 100 µM each time. Further, the TGI with SK-OV-3 ovarian, in the experiment on SNB-75 CNS, with TK-10 renal and in the experiment with U251 CNS was more than 100 µM throughout.
`CCOc1cc2ncc(C#N)c(Nc3ccc(OCc4cccc(F)c4)c(Cl)c3)c2cc1NC(=O)CC1CCSS1` (centres undefined): the GI50 in the experiment on A498 renal is more than 25 µM; in the experiment with CAKI-1 renal it was 1.77 µM; in the experiment on EKVX NSCLC it was 0.74 µM; in the experiment with NCI-H460 lung, 0.465 µM; with OVCAR-8 ovarian, 6.36 µM; in the experiment on SK-MEL-2 melanoma, 0.99 µM. The GI50 is 0.476 µM in the experiment on SK-OV-3 ovarian, more than 25 µM in the experiment with SNB-75 CNS, 0.916 µM with TK-10 renal and more than 6.88 µM with U251 CNS. The TGI in the experiment with A498 renal is more than 25 µM; with CAKI-1 renal, more than 25 µM; in the experiment with EKVX NSCLC, more than 14.3 µM; with NCI-H460 lung, 0.948 µM; with OVCAR-8 ovarian, more than 25 µM; with SK-MEL-2 melanoma, more than 7.13 µM. Further, the TGI in the experiment with SK-OV-3 ovarian is 0.905 µM; in the experiment on SNB-75 CNS it was more than 25 µM; in the experiment with TK-10 renal, 6 µM; with U251 CNS it was more than 25 µM.
As to `C=C1C(=O)O[C@H]2[C@H]1CC/C(COC(=O)c1cc3cc(F)ccc3[nH]1)=C\CC[C@@]1(C)O[C@@H]21`, the GI50 in the experiment on A498 renal is 3.35 µM; in the experiment on CAKI-1 renal, 1.2 µM; with EKVX NSCLC it was 1.58 µM; in the experiment on NCI-H460 lung, 3.04 µM; in the experiment on OVCAR-8 ovarian it was 2.17 µM; in the experiment with SK-MEL-2 melanoma it was 1.95 µM. Moreover, the GI50 in the experiment with SK-OV-3 ovarian is 11.6 µM; with SNB-75 CNS, 11.1 µM; with TK-10 renal, 1.83 µM; with U251 CNS, 1.82 µM. Besides, the TGI stood at 8.96 µM in the experiment with A498 renal; 2.62 µM in the experiment with CAKI-1 renal; 3.71 µM in the experiment with EKVX NSCLC; 11.5 µM in the experiment on NCI-H460 lung; 6.67 µM with OVCAR-8 ovarian; 4.27 µM with SK-MEL-2 melanoma. Further, the TGI in the experiment with SK-OV-3 ovarian was found to be 24.1 µM; in the experiment with SNB-75 CNS it was 23.9 µM; in the experiment on TK-10 renal it was 3.3 µM; in the experiment with U251 CNS, 3.57 µM.
As to `CNC(=O)c1cc(OC2CCC(NC(=O)Nc3ccc(Cl)c(C(F)(F)F)c3)CC2)ccn1` (centres undefined), the GI50 was 8.14 µM with A498 renal; 6.75 µM in the experiment with CAKI-1 renal; 7.46 µM in the experiment on EKVX NSCLC; 6.92 µM in the experiment on NCI-H460 lung; 7.89 µM in the experiment with OVCAR-8 ovarian; 15.8 µM in the experiment on SK-MEL-2 melanoma. Further, the GI50 in the experiment on SK-OV-3 ovarian is 18.8 µM; with SNB-75 CNS it was 16 µM; with TK-10 renal it was 18.4 µM; with U251 CNS, 6.81 µM. Besides, the TGI with A498 renal was 22.1 µM; with CAKI-1 renal it was 31.9 µM; in the experiment with EKVX NSCLC, 58.7 µM; in the experiment on NCI-H460 lung it was 28.6 µM; with OVCAR-8 ovarian it was 39.6 µM; with SK-MEL-2 melanoma it was 38.3 µM. The TGI with SK-OV-3 ovarian is 40.1 µM; in the experiment on SNB-75 CNS, 38.9 µM; in the experiment on TK-10 renal, 49.2 µM; in the experiment with U251 CNS, 23.4 µM.
Turning to `Cc1ccc(CNc2c3ccccc3nc3ccccc23)cc1`, the GI50 in the experiment on A498 renal is 1.21 µM; in the experiment on CAKI-1 renal, 1.53 µM; in the experiment with EKVX NSCLC, 2.06 µM; with NCI-H460 lung it was 2.02 µM; with OVCAR-8 ovarian, 2.52 µM; with SK-MEL-2 melanoma, 2.06 µM. For the same molecule, the GI50 in the experiment with SK-OV-3 ovarian is 2.59 µM; in the experiment with SNB-75 CNS it was 0.402 µM; with TK-10 renal it was 2.97 µM; with U251 CNS, 2.65 µM. The TGI stood at 2.92 µM in the experiment on A498 renal; 4.57 µM in the experiment on CAKI-1 renal; 8.04 µM in the experiment with EKVX NSCLC; 5.26 µM with NCI-H460 lung; 10.5 µM with OVCAR-8 ovarian; 4.47 µM with SK-MEL-2 melanoma. The TGI was 10.8 µM in the experiment on SK-OV-3 ovarian, 6.8 µM in the experiment with SNB-75 CNS, 12.6 µM in the experiment with TK-10 renal and 10.4 µM in the experiment on U251 CNS.
On to `COc1ccc2c(c1)[nH]c(=O)c1c3cc(C)c(C)cc3cn21`, for which the GI50 in the experiment with A498 renal is less than 0.01 µM; in the experiment with CAKI-1 renal, less than 0.01 µM; in the experiment on EKVX NSCLC it was 0.0563 µM; in the experiment with NCI-H460 lung, less than 0.018 µM; in the experiment on OVCAR-8 ovarian it was less than 0.0179 µM; in the experiment on SK-MEL-2 melanoma, less than 0.0208 µM. For the same molecule, the GI50 in the experiment on SK-OV-3 ovarian is less than 0.0194 µM; with SNB-75 CNS, less than 0.01 µM; in the experiment on TK-10 renal, 0.32 µM; in the experiment on U251 CNS, less than 0.01 µM. For the same molecule, the TGI with A498 renal was less than 0.0295 µM; with CAKI-1 renal it was 0.0102 µM; in the experiment on EKVX NSCLC, 4.67 µM; in the experiment with NCI-H460 lung it was 1.02 µM; in the experiment with OVCAR-8 ovarian it was 1.48 µM; with SK-MEL-2 melanoma it was 6.19 µM. Besides, the TGI came out at 4.59 µM in the experiment on SK-OV-3 ovarian, 4.37 µM with SNB-75 CNS, 1.27 µM with TK-10 renal and 1.2 µM in the experiment with U251 CNS.
